According to patent publication US8129355B2, “Ketone ligands for modulating the expression of exogenous genes via an ecdysone receptor complex” (priority 2002, dated 2012):

Columns and labels:
[1] = target: T1, GAL4 DBD (1-147)-CfEcR(DEF)/VP16AD-βRXREF-LmUSPEF (Choristoneura fumiferana, UniProt O77240); assay: 27-63 assay: luciferase reporter gene expression in stable CHO cell clone 27-63; details: for 27-63 Rel Max FI: maximum fold induction at any concentration relative to that of GS-E ligand; for CC50: read-out: 27-63 LC50, average, dose response, three-parameter logistic model
T1 sequence (O77240 191-513): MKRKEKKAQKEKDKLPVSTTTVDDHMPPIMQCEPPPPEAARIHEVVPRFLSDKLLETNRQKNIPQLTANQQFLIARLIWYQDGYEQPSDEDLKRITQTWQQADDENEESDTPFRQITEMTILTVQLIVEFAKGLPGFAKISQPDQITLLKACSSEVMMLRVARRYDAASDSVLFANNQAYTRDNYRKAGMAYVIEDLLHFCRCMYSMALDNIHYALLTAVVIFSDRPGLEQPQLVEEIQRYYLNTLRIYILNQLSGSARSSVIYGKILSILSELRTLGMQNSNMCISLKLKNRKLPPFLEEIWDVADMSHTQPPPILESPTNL
T1 sequence (P28702 296-455 partner limits assumed): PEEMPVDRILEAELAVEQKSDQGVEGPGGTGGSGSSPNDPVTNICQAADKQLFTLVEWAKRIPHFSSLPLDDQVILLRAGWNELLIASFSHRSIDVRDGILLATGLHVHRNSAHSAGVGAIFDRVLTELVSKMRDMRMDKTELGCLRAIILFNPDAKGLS
Excerpt: GAL4 DBD (1-147)-CfEcR(DEF)/VP16AD-βRXREF-LmUSPEF: The wild-type D, E, and F domains from spruce budworm Choristoneura fumiferana EcR (“CfEcR-DEF”; SEQ ID NO: 1) were fused to a GAL4 DNA binding domain (“Gal4 DBD1-147”; nucleotides 31 to 471 of SEQ ID NO: 2) and placed under the control of a phosphoglycerate kinase promoter (“PGK”; SEQ ID NO: 3). Helices 1 through 8 of the EF domains from Homo sapiens RXRβ and helices 9 through 12 of the EF domains of Locusta migratoria Ultraspiracle Protein (“HsRXRβ-EF-LmUSP-EF”; SEQ ID NO: 4) were fused to the transactivation domain from VP16 (“VP16AD”; SEQ ID NO: 5) and placed under the control of an elongation factor-1α promoter (“EF-1α”; SEQ ID NO: 6). Five consensus GAL4 response element binding sites (“5XGAL4RE”; comprising 5 copies of a GAL4RE comprising SEQ ID NO: 7) were fused to a synthetic TATA minimal promoter (SEQ ID NO: 8) and placed upstream of the luciferase reporter gene (SEQ ID NO: 9).
CHO cells were transiently transfected with transcription cassettes for GAL4 DBD (1-147) CfEcR(DEF) and for VP16AD βRXREF-LmUSPEF controlled by ubiquitously active cellular promoters (PGK and EF-1α, respectively) on a single plasmid. Stably transfected cells were selected by Zeocin resistance. Individually isolated CHO cell clones were transiently transfected with a GAL4 RE-luciferase reporter (pFR Luc). 27-63 clone was selected using Hygromycin.
Cells were trypsinized and diluted to a concentration of 2.5×10^4 cells mL. 100 μL of cell suspension was placed in each well of a 96 well plate and incubated at 37° C. under 5% CO2 for 24 h. Ligand stock solutions were prepared in DMSO and diluted 300 fold for all treatments. Dose response testing consisted of 8 concentrations ranging from 33 μM to 0.01 μM.
Luciferase reporter gene expression was measured 48 h after cell treatment using Bright-Glo™ Luciferase Assay System from Promega (E2650). Luminescence was detected at room temperature using a Dynex MLX microtiter plate luminometer.
Fold inductions were calculated from single dose testing by dividing relative light units (RLU) in ligand treated cells by RLU in DMSO treated cells. BC50s were calculated from dose response data using a three-parameter logistic model.

[2] = target: T2, Gal4 DBD/AaEcR (DEF) with VP16-βRXR-E (Aedes aegypti, UniProt P49880); assay: cell-based; format: cell-based; details: for LC50 (half-maximal ligand concentration for reporter induction): average, dose response 33 μM to 0.01 μM, three-parameter logistic model, read-out: AA_3T3 LC50; for AA_3T3 Rel Max FI: maximum fold induction at any concentration relative to that of GS-E ligand; for Fold Induction Average, AA_3T3 Assay (33 μM): single dose 33 μM, RLU ligand treated / RLU DMSO treated cells
T2 construct: The wildtype D, E, and F domains from mosquito Aedes aegypti EcR (“AaEcR-DEF”); expressed in transfected cells; host or cells: 3T3 cells, transient transfection (Superfect)
T2 sequence (P28704 286-520 A311G/G315S/G445S/I449V): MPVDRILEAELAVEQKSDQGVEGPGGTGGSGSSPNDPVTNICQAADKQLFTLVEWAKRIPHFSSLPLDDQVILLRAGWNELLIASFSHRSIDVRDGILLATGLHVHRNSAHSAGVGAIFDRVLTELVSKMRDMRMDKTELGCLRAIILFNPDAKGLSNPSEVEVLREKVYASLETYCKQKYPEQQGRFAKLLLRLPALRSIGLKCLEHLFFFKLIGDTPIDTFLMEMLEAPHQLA
T2 sequence (P49880 405-776): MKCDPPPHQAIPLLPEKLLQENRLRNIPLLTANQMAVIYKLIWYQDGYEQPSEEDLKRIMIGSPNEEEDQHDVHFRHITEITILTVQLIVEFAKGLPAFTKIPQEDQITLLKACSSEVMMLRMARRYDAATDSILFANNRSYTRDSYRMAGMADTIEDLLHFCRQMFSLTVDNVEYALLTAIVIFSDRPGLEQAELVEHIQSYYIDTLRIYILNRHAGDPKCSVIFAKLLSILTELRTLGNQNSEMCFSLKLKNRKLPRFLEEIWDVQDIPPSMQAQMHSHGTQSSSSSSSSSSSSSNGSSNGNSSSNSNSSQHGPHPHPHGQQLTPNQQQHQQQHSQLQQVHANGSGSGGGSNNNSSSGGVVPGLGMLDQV
Description: 3T3 cells were trypsinized and plated at 2.5×10^3 cells/well on a 96-well plate. After incubation for 24 h at 37° C. under 5% CO2, cells were transfected with the Gal4 DBD/AaEcR (DEF) gene expression cassette and the reporter plasmid, pFRLuc, containing a 5XGAL4 response element and the firefly luciferase gene in serum free media using Superfect (Qiagen). After transfection for 4 h at 37° C., the cells were treated with ligand in serum media. […] Single dose testing was performed at 33 μM.

SMILES | 27-63 Rel Max FI [1] | CC50 [1] | LC50 (half-maximal ligand concentration for reporter induction) [2] | AA_3T3 Rel Max FI [2] | Fold Induction Average, AA_3T3 Assay (33 μM) [2]
COc1cccc(C(=O)NC2(C(=O)c3cc(C)cc(C)c3)CCCC2)c1 [Example 137] | 0.21 | > 33 µM | > 33 µM | 0.01 | 115
CCc1ccc(C(=O)NC2(C(=O)c3cc(C)cc(C)c3)CCCC2)cc1 [Example 138] | 0.75 | 3.59 µM | ~4.7 µM | 0.22 | 2134
